According to US5153353A, “p-Oxybenzoic acid derivatives, process for the preparation thereof and use thereof as drug” (Klinge Pharma GmbH, priority 1990, dated 1992):

How the values were obtained:
[1] = system: cholesterol biosynthesis in rat liver homogenate; test: Determination of the inhibition of cholesterol biosynthesis in rat liver homogenate (14C-acetate incorporation); format: biochemical; conditions: compared with the blank value
Protocol: 2) Determination of the inhibition of cholesterol biosynthesis
3 g freshly prepared rat liver was homogenized in 6 ml ice-cooled puffer and centrifuged for 20 minutes at 20000×g. The supernatant was separated off and employed for the following determinations.
To a mixture of 110 μl supernatant and 300 μl incubation solution 10 μl of the methanolic test substance solution were pipetted and incubated at 37° C. for 20 minutes. Thereafter 10 μl of an ^14 C-acetate solution were added by pipette and incubated for a further 30 minutes. Thereafter, to the mixture 500 μl ethanolic KOH solution were added, further incubation carried out for 60 minutes at 75° C. and thereafter the reaction stopped in an ice bath. To enable a yield correction to be made for the subsequent extraction of the ^14 C-cholesterol formed ^3 H-cholesterol (about 10^-3 μCi) was added thereto by pipetting. In addition, 500 μl of an ethanolic solution of unmarked cholesterol was added. The cholesterol of the mixture was extracted twice with 1 ml petroleum ether in each case, the extract dried and taken up with 0.6 ml of an ethanol/acetone mixture (1/1). The dissolved cholesterol was then precipitated by means of 1.4 ml of a digitonin solution (=7 mg). After 15 h at 0° C. the precipitate was centrifuged off, dissolved with 0.5 ml methanol/glacial acetic acid (33/5) and diluted with 2 ml methanol. The radioactivity of the biosynthetically formed cholesterol was determined in 12 ml scintillation liquid (DIMILUME) by means of a scintillation counter.
Buffer: 6.8 g KH2 PO4, 0.6 g MgCl2, 0.37 g EDTA, 1.83 g nicotine amide, 51.35 g saccharose and 0.4 g mercaptoethanol were dissolved in distilled water and diluted to 500 ml (PH =7.2).
Incubation solution: The following were each individually dissolved:
8.6 mg NAD with 1.3 ml buffer
10.2 mg NADP with 1.3 ml buffer
39.6 mg glucose-6-phosphate with 0.65 ml buffer
31.6 mg glucose-6-phosphate-dehydrogenase (1000 U/0.91 ml) with 0.285 ml buffer
These solutions were not mixed until immediately prior to use.
Solution 1: 250 μCi ^14 C-sodium acetate in 1 ml aqua dest.
Solution 2: 512.5 mg sodium acetate in 10 ml aqua dest.
Prior to the test 0.1 ml of the solution 1 and 0.4 ml of the solution 2 were mixed and added to 2 ml aqua dest.
Ethanolic KOH: 10 g KOH were dissolved in 100 ml. ethanol
Method: R. E. Dugan et al. (Archives Biochem. Biophys. 152,21 (1972))

[2] = system: normolipemic, male Wister rats; test: Determination of the hypolipemic effect in rats (serum total cholesterol and triglycerides after oral administration); format: in vivo, rat; conditions: three administrations over three days
Protocol: 1) Determination of the hypolipemic effect in rats
The lipid-lowering effect of the test substances was examined in groups each of 10 normolipemic, male Wister rats of 200 to 220 g in weight.
The investigations were performed after a 3-week adaption training of the eating habits of the animals. The controlled feeding was carried out daily from 8 a.m. to 10 a.m. The test substances were administered at 11 a.m.
The test compounds were absorbed in an aqueous solution of 0.25% agar and 0.84% NaCl and administered orally. After three administrations over a period of three days blood was extracted from the animals.
The determination of cholesterol and triglycerides in the serum was made with the aid of the "Cobas-Bio" centrifugal analyzer of Hoffmann-La Roche.
a) Cholesterol determination CHOS-PAP method, enzymatic colour test according to J. Siedel et al. (J. Clin. Chem. Clin. Biochem. 19, 838 (1981))
b) Triglyceride determination Enzymatic cleavage of the triglycerides with the aid of specific lipases with subsequent determination of the liberated glycerol according to T. O. Tiffany et al. (Clin. Chem. 20, 476 (1974))

Row | Structure (SMILES) | Percentage inhibition of cholesterol biosynthesis in rat liver homogenate ([1]; concentration 1 × 10^-4 Mol/l) [%] | Percentage inhibition of cholesterol biosynthesis in rat liver homogenate ([1]; concentration 1 × 10^-5 Mol/l) [%] | Percentage inhibition of cholesterol biosynthesis in rat liver homogenate ([1]; concentration 3 × 10^-5 Mol/l) [%] | Percentage inhibition of cholesterol biosynthesis in rat liver homogenate ([1]; concentration 3 × 10^-6 Mol/l) [%] | Percentage change of the total cholesterol (TC) level in the rat serum, X ± SD ([2]; 10 mg/kg) | Percentage change of the triglyceride (TG) level in the rat serum, X ± SD ([2]; 10 mg/kg) [%] | Percentage change of the total cholesterol (TC) level in the rat serum, X ± SD ([2]; 30 mg/kg) [%] | Percentage change of the triglyceride (TG) level in the rat serum, X ± SD ([2]; 30 mg/kg) [%] | Percentage change of the total cholesterol (TC) level in the rat serum, X ± SD ([2]; 100 mg/kg) [%] | Percentage change of the triglyceride (TG) level in the rat serum, X ± SD ([2]; 100 mg/kg) [%]
1 | CC(C)(C)c1ccc(CCC(O)COc2ccc(C(=O)OCC(O)CO)cc2)cc1 (stereo not drawn) [Compound 1, 4-[4-(4'-tert. butylphenyl)-2-hydoxybutoxy]benzoic acid-2,3-dihydroxypropylester] | 68 | 34 | 57 | 0 | +3.8 ± 16.4% | -26.2 ± 51.1 | -17.1 ± 13.9 | -28.5 ± 9.0 | -44.1 ± 10.8 | -34.7 ± 8.6
2 | CC(C)(C(=O)O)c1ccc(CCC(O)COc2ccc(C(=O)O)cc2)cc1 (stereo not drawn) [Compound 3, 4-{4-[4'-(1-carboxy-1-methylethyl)phenyl]-2-hydroxybutoxy}benzoic acid] | 70 | 29 | 56 | 14 | – | – | – | – | -17.5 ± 6.2 | -19.4 ± 9.7
3 | CCOC(=O)C(C)(C)Oc1ccc(Cl)cc1 [CLOFIBRAT, reference compound] | – | – | – | – | – | – | – | – | -14.5 ± 12.0 | -29.2 ± 19.4
4 | CC(C)(CO)c1ccc(CCC(O)COc2ccc(C(=O)O)cc2)cc1 (stereo not drawn) [Compound 2] | 75 | 41 | 65 | 16 | – | – | – | – | -39.7 ± 12.4 | -1.6 ± 21.4
